ChEMBL document CHEMBL1201862, “PubChem BioAssay data set” (2004)
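Protocol summary: plate cells (96-well), add compound at 5 concentrations, incubate 48 h, interpolate endpoints linearly. GI50 marks 50% less growth.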 Calls of active or inactive are those of the source. Rule as the data show it: active = GI50 up to about 1.1 µM and inactive = higher.

Key:
Assay in all cases: DTP human tumour cell line panel, 48 h
[1] = system: LXFL 529
[2] = system: A549
[3] = system: SK-MEL-2
[4] = system: SF-539
[5] = system: HOP-92
[6] = system: Malme-3M
[7] = system: M19-MEL
[8] = system: 786-0
[9] = system: DMS-114
[10] = system: SR
[11] = system: A498
[12] = system: NCI-H226
[13] = system: PC-3
[14] = system: MDA-N
[15] = system: MCF7
[16] = system: MDA-MB-231
[17] = system: Hs-578T
[18] = system: MDA-MB-435
[19] = system: BT-549
[20] = system: T47D

| Structure (SMILES) | GI50 [1] | GI50 [2] | GI50 [3] | GI50 [4] | GI50 [5] | GI50 [6] | GI50 [7] | GI50 [8] | GI50 [9] | GI50 [10] | GI50 [11] | GI50 [12] | GI50 [13] | GI50 [14] | GI50 [15] | GI50 [16] | GI50 [17] | GI50 [18] | GI50 [19] | GI50 [20] |
| --- | --- | --- | --- | --- | --- | --- | --- | --- | --- | --- | --- | --- | --- | --- | --- | --- | --- | --- | --- | --- |
| C/C=C/CC(C)[C@@H](O)[C@H](NC)C(=O)O (some centres undefined) | > 100 µM (inactive) | > 100 µM (inactive) | > 100 µM (inactive) | > 100 µM (inactive) | > 100 µM (inactive) | > 100 µM (inactive) | > 100 µM (inactive) | > 100 µM (inactive) | > 100 µM (inactive) | – | – | – | – | – | – | – | – | – | – | – |
| Cc1ccc(NC(=O)CC2Sc3ccccc3NC2=O)cc1C (centres undefined) | 49 µM (inactive) | 41.2 µM (inactive) | > 100 µM (inactive) | 85.3 µM (inactive) | 26 µM (inactive) | > 100 µM (inactive) | > 100 µM (inactive) | – | 41.9 µM (inactive) | > 100 µM (inactive) | 37.9 µM (inactive) | 57.9 µM (inactive) | – | – | – | – | – | – | – | – |
| COc1ccc2c(c1)/C(=C(\C(Cl)=C(\Cl)N1CCCCC1)[N+](=O)[O-])N2 | – | > 100 µM (inactive) | – | – | > 100 µM (inactive) | > 100 µM (inactive) | – | > 100 µM (inactive) | – | 27.1 µM (inactive) | > 100 µM (inactive) | 29.6 µM (inactive) | > 100 µM (inactive) | > 100 µM (inactive) | > 100 µM (inactive) | > 100 µM (inactive) | > 100 µM (inactive) | > 100 µM (inactive) | 98.6 µM (inactive) | > 100 µM (inactive) |
| CN(C(=O)C1=CCC2(CC1)OCCO2)c1ccccc1I | – | > 100 µM (inactive) | > 100 µM (inactive) | – | > 100 µM (inactive) | – | – | > 100 µM (inactive) | – | > 100 µM (inactive) | > 100 µM (inactive) | > 100 µM (inactive) | > 100 µM (inactive) | > 100 µM (inactive) | > 100 µM (inactive) | > 100 µM (inactive) | – | > 100 µM (inactive) | – | > 100 µM (inactive) |
| CC(=O)Nc1ccc2c3c(cc(O)c2c1)N(C(=O)CCCCCC(=O)Nc1ccc2c4c(cc(O)c2c1)N(C(=O)OC(C)(C)C)CC4CCl)CC3CCl (centres undefined) | – | 12.3 µM (inactive) | 1.76 µM (inactive) | 2.37 µM (inactive) | 3.59 µM (inactive) | 2.17 µM (inactive) | – | 2.04 µM (inactive) | – | 0.118 µM (active) | 1.64 µM (inactive) | 1.55 µM (inactive) | 2.99 µM (inactive) | 1.53 µM (inactive) | 0.233 µM (active) | 4.33 µM (inactive) | 3.94 µM (inactive) | 1.63 µM (inactive) | 1.87 µM (inactive) | 0.541 µM (active) |
| OC(c1ccccc1)C1CC2C=CC1C2 (centres undefined) | > 100 µM (inactive) | > 100 µM (inactive) | > 100 µM (inactive) | > 100 µM (inactive) | > 100 µM (inactive) | > 100 µM (inactive) | > 100 µM (inactive) | – | > 100 µM (inactive) | – | > 100 µM (inactive) | – | – | – | – | – | – | – | – | – |
| COC(=O)CCC(=O)Nc1ccc(Cl)cc1C | 32.1 µM (inactive) | > 22 µM (inactive) | > 47.8 µM (inactive) | > 100 µM (inactive) | > 60.8 µM (inactive) | > 100 µM (inactive) | > 100 µM (inactive) | > 50.8 µM (inactive) | 0.859 µM (active) | 5.47 µM (inactive) | – | > 52.6 µM (inactive) | – | – | – | – | – | – | – | – |
| Cc1ccc(S(=O)(=O)NCCCSCCO)cc1 | – | 10.5 µM (inactive) | – | – | 36.4 µM (inactive) | – | – | – | – | > 100 µM (inactive) | > 100 µM (inactive) | 27.9 µM (inactive) | 30 µM (inactive) | 55 µM (inactive) | 32.8 µM (inactive) | 27.7 µM (inactive) | 30.5 µM (inactive) | 45.2 µM (inactive) | – | 21.7 µM (inactive) |
| CCN(CC)CCC(=O)c1ccccc1 | 17.8 µM (inactive) | > 100 µM (inactive) | > 100 µM (inactive) | 24.8 µM (inactive) | 13.1 µM (inactive) | – | 25.6 µM (inactive) | – | 20.3 µM (inactive) | 14 µM (inactive) | – | > 100 µM (inactive) | – | – | – | – | – | – | – | – |
| CN(C)C(=S)/N=c1\ssc(=S)n1Cc1ccco1 | 3.48 µM (inactive) | 1.98 µM (inactive) | 2.37 µM (inactive) | 1.95 µM (inactive) | > 100 µM (inactive) | 3.79 µM (inactive) | 2.16 µM (inactive) | 3.72 µM (inactive) | 1.99 µM (inactive) | 1.97 µM (inactive) | 1.38 µM (inactive) | 12 µM (inactive) | 0.509 µM (active) | 0.22 µM (active) | 0.49 µM (active) | 10.4 µM (inactive) | 0.31 µM (active) | 0.274 µM (active) | 12.2 µM (inactive) | 0.571 µM (active) |
| CC1CC/C(=C\c2ccc(F)cc2)C(=O)/C1=C/c1ccc(F)cc1 (centres undefined) | – | – | 4.83 µM (inactive) | 3.68 µM (inactive) | – | 17.9 µM (inactive) | – | 2.9 µM (inactive) | – | – | 12.6 µM (inactive) | 7.03 µM (inactive) | 5.2 µM (inactive) | 3.54 µM (inactive) | 4.21 µM (inactive) | 2.66 µM (inactive) | 6.58 µM (inactive) | 4.69 µM (inactive) | 3.58 µM (inactive) | 5.46 µM (inactive) |
| Cc1c(C)c(S(=O)(=O)N(CCCN)OCCCN)c(C)c2c1OC(C)(C)CC2 | – | 15.6 µM (inactive) | 17.5 µM (inactive) | – | 7.5 µM (inactive) | 13.6 µM (inactive) | – | 15.9 µM (inactive) | – | 17.5 µM (inactive) | 12.9 µM (inactive) | 13.4 µM (inactive) | 12 µM (inactive) | 15.8 µM (inactive) | 15.4 µM (inactive) | 4.63 µM (inactive) | 14.8 µM (inactive) | 15.8 µM (inactive) | 17.5 µM (inactive) | 16.9 µM (inactive) |
| COc1ccccc1-c1cc(O)c2ccc(C)nc2n1 | – | > 100 µM (inactive) | > 100 µM (inactive) | > 100 µM (inactive) | 32.8 µM (inactive) | 51.5 µM (inactive) | – | – | – | – | > 100 µM (inactive) | > 100 µM (inactive) | – | – | 47.4 µM (inactive) | > 100 µM (inactive) | > 100 µM (inactive) | – | > 100 µM (inactive) | > 100 µM (inactive) |
| COc1cc(O)c2c(=O)c(O)c(-c3ccc(O)c(O)c3)oc2c1 [RHAMNETIN] | – | 15 µM (inactive) | – | – | 10.5 µM (inactive) | 17.7 µM (inactive) | – | – | – | 13.3 µM (inactive) | 3.68 µM (inactive) | – | 19.7 µM (inactive) | 19.8 µM (inactive) | 17.8 µM (inactive) | 10.7 µM (inactive) | – | 13 µM (inactive) | – | 19.6 µM (inactive) |
